Assay results: PMC3499469, “Structural Insight into Inhibitor of Apoptosis Proteins Recognition by a Potent Divalent Smac-Mimetic” (PLoS ONE, 2012)

Target: T1, cIAP2-BIR3 (Homo sapiens, UniProt Q13489)
T1 construct: gene BIRC3; BIR3 domain, residues 245-357 as printed (jointly with cIAP1), C-terminal 6xHis-tag, pET21(b), E. coli BL21(DE3)
Assay: fluorescence polarization displacement of fluorescent probe FITC-SMAC
Settings: read-out: Fluorescence Binding Assays IC50 [nM] / cIAP2-BIR3
From the text: fluorescence polarization displacement of fluorescent probe FITC-SMAC on cIAP2-BIR3

T1 sequence (Q13489 245-357): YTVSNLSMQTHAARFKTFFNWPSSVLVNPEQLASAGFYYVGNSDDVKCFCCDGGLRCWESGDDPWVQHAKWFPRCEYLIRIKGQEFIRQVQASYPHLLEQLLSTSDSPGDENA

IC50: 1.9 ± 0.9 nM
SMILES: CC[C@H](NC)C(=O)N[C@@H]1C(=O)N2[C@@H](CC[C@@H]1CO)CC[C@H]2C(=O)N[C@@H](c1ccccc1)c1cn(CCCCc2ccc(CCCCn3cc([C@@H](NC(=O)[C@@H]4CC[C@@H]5CC[C@H](CO)[C@H](NC(=O)[C@H](CC)NC)C(=O)N54)c4ccccc4)nn3)cc2)nn1 [9a]
